Laboratory results: article PMC12164071, “Lysine targeting covalent inhibitors of malarial kinase PfCLK3” (RSC Medicinal Chemistry, 2025)

Legend:
PfCLK3 = assay: Tryptic digest and tandem mass spectrometry of PfCLK3 adducts; assay type: binding, Plasmodium falciparum; conditions: PfCLK3 pretreated with compound, trypsin digest, tandem MS
Description: PfCLK3 pretreated with either compound 4 or 9 was then digested with trypsin, and the resulting tryptic peptides analysed by tandem mass spectrometry (Fig. 4d and e). This subset of compounds sampled azaindole regioisomers as well as both aldehyde warheads used. […] However, possible modification of a peptide containing Lys494 and Lys503 was also observed. This is a curious result, as a secondary adduct was not observed in the intact spectrum. Lys503 is distal from the ATP binding site, whereas Lys494 lies at its entrance. Adduct formation may be occurring with Lys494 as 4 approaches the binding-site.
This is consistent with the intact mass spectrum, which detected a doubly modified species in ∼20% abundance versus the singly modified protein. […]
For intact protein mass spectrometry, compounds were incubated with a 5-fold excess of compound in buffer containing 20 mM HEPES pH 7.4, 150 mM NaCl, 1 mM TCEP, and 1 mM MgCl 2. […] Samples were incubated at room temperature for 4 hours before 10 μL alliquots were analysed by LC-MS. […]
The resulting peptide mixture was analyzed by high resolution nESI FT-ICR MS using a 12 Telsa Solarix 2XR mass spectrometer (Bruker Daltonics) equipped with a nanomate infusion robot (Advion Biosciences). […]

recombinant PfCLK3 = recombinant PfCLK3 (Plasmodium falciparum, UniProt Q8IIL5); assay: TR-FRET kinase assay at Km ATP; assay type: biochemical; conditions: 2 hour incubation, errors SD, N ≥ 3, * concentration response curve not complete
Description: All compounds were then evaluated against recombinant PfCLK3 using a TR-FRET kinase assay (Fig. 5). […]
Time Resolved Förster Resonance Energy Transfer (TR-FRET) Assay
Tr-FRET technology was used to determine kinase activity and Km ATP before profiling compounds. An 11-point half-log serial dilution of each test compound was prepared in 100% DMSO at 100X final test concentration. The dilution series were dispensed onto assay plates with liquid handling machinery using positive displacement. The final DMSO concentration in the assay was 1%. To obtain IC 50 values, full length recombinant PfCLK3 was prepared in 1X assay buffer (50 mM Hepes, 10 mM MgCl2, 1 mM EGTA, 0.01% Tween20, 2 mM TCEP) at a 2X concentration and incubated with compounds for 15 minutes at room temperature before addition of ULight-labelled peptide substrate (MBP) with Km ATP (at 2X concentration). The reaction was centrifuged and incubated for 2 hr at 37 °C. To stop the reaction, 1X Lance detection buffer was added with 1 nM Eu-labelled anti-MBP and 10 mM EDTA, and the reaction was incubated in the dark for 2 hr at room temperature to allow detection to take place. Plate output was read on a Pherastar FSX and data analysed in Graphpad Prism to a 4-parameter curve fit. […]

recombinant PfCLK3, sequence (Q8IIL5 entry or part of it): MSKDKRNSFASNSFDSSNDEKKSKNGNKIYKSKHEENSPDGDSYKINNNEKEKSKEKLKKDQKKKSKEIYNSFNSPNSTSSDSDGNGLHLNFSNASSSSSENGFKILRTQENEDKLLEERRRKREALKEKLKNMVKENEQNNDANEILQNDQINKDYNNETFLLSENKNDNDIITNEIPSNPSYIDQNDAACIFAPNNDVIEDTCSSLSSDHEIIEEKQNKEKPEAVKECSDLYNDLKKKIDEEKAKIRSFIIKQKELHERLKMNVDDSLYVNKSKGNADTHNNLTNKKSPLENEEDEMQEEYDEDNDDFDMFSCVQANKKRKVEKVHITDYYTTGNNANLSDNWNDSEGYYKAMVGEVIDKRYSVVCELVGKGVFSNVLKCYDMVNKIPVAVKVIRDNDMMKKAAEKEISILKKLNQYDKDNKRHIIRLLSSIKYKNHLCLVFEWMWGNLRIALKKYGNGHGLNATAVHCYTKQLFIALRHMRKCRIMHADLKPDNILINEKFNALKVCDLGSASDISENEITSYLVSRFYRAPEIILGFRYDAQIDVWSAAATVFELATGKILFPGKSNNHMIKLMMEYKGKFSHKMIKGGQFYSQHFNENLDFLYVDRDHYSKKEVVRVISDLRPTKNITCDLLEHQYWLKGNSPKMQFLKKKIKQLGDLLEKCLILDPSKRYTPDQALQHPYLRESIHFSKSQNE

| SMILES | site of modification (PfCLK3) | IC50 (recombinant PfCLK3; IC50 (apparent), Km ATP (5 μM)) [nM] | IC50 (recombinant PfCLK3; pIC50, Km ATP (5 μM)) [nM] |
| --- | --- | --- | --- |
| C#Cc1ccc(-c2c[nH]c3ncc(-c4cc(CN(CC)CC)ccc4OC)cc23)cc1C=O [Compound 9] | pyridinium modification was observed in peptides containing both the target Lys394, and Lys373 | 16 ± 4 | 16.6 |
| CCN(CC)Cc1ccc(OC)c(-c2cc3c(-c4ccc(O)c(C=O)c4)ccnc3[nH]2)c1 [Compound 4] | Lys394 was the predominant site of modification | 16 ± 9 | 16.2 |
